Measured values as given in patent publication US10766869B2, “Triazoles for the treatment of demyelinating dieases” (Vertex Pharmaceuticals Incorporated, priority 2015, dated 2020).
Like-named read-outs stand apart in the source and are kept apart here.

System: primary rat mixed cortical cells
Test: In vitro myelination assay (MBP positive myelin strands, fold myelin pixels above background)
Format: cell-based
Conditions: for fold induction at 1 µM / fold induction at 10 µM: Rattus norvegicus; for fold induction at 1 µM: 1.0 μM compound
How it was run: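 Fourteen-day treatment of primary P1 rat mixed cortical cultures, re-dosed at days 6 and 10, at 1.0 μM and 10.0 μM. MBP immunofluorescence was imaged at 10× and myelin strands quantified by software, normalised to untreated wells as fold above background.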

[1] = read-out: Fold myelin pixels above background relative to baseline of no added compound
[2] = 10.0 μM compound, read-out: Fold myelin pixels above background relative to baseline of no added compound
[3] = relative to baseline of no added compound, read-out: Fold myelin pixels above background
[4] = 10.0 μM compound, relative to baseline of no added compound, read-out: Fold myelin pixels above background
[5] = relative to baseline of no added compound, read-out: Fold myelin pixels above background, 1.0 μM
[6] = 10.0 μM compound, relative to baseline of no added compound, read-out: Fold myelin pixels above background, 10.0 μM

`COCC(=O)N1CC(C)(Nc2cc(C)cc(Nc3ncn(-c4cc(F)cc(F)c4)n3)c2)C1` [Compound 1075, 1-[3-[3-[[1-(3,5-difluorophenyl)-1,2,4-triazol-3-yl]amino]-5-methyl-anilino]-3-methyl-azetidin-1-yl]-2-methoxy-ethanone] was tested, and the fold induction at 1 µM [1] was 1 to 10 and the fold induction at 10 µM [2] was ≤ 1.
`Cc1cc(Nc2ncn(-c3cc(F)cc(F)c3)n2)cc(N2CCOC(C3CCCO3)C2)c1` (stereo not shown) [Compound 888, 1-(3,5-difluorophenyl)-N-[3-methyl-5-(2-tetrahydrofuran-2-ylmorpholin-4-yl)phenyl]-1,2,4-triazol-3-amine] showed a fold induction at 1 µM [1] of 1 to 10 and a fold induction at 10 µM [2] of 1 to 10.
`Cc1cc(CN2CCN(C3COC3)CC2)c(F)c(Nc2ncn(-c3cc(F)cc(F)c3)n2)c1` [Compound 630, 1-(3,5-difluorophenyl)-N-[2-fluoro-5-methyl-3-[[4-(oxetan-3-yl)piperazin-1-yl]methyl]phenyl]-1,2,4-triazol-3-amine] was tested, and the fold induction at 1 µM [3] was 1 to 10 and the fold induction at 10 µM [4] was 1 to 10.
`Cc1cc(Nc2ncn(-c3cccc(C(F)(F)F)c3)n2)cc(OCCn2cccn2)c1` [Compound 644, N-[3-methyl-5-(2-pyrazol-1-ylethoxy)phenyl]-1-[3-(trifluoromethyl)phenyl]-1,2,4-triazol-3-amine] showed a fold induction at 1 µM [3] of 1 to 10 and a fold induction at 10 µM [4] of 10 to 100.
With `Fc1cc(F)cc(-n2cnc(Nc3cc(C(F)F)cc(N4CC(N5CCOCC5)C4)c3)n2)c1` [Compound 804, N-[3-(difluoromethyl)-5-(3-morpholinoazetidin-1-yl)phenyl]-1-(3,5-difluorophenyl)-1,2,4-triazol-3-amine] the fold induction at 1 µM [1] was 10 to 100 and the fold induction at 10 µM [2] was ≤ 1.
`Cc1cc(NCC(N2CCOCC2)C(F)(F)F)cc(Nc2ncn(-c3cc(F)cc(F)c3)n2)c1` (stereo not shown) [Compound 899, N1-[1-(3,5-difluorophenyl)-1,2,4-triazol-3-yl]-5-methyl-N3-(3,3,3-trifluoro-2-morpholino-propyl)benzene-1,3-diamine] gave a fold induction at 1 µM [1] of 1 to 10 and a fold induction at 10 µM [2] of 1 to 10.
`Fc1cccc(-n2cnc(Nc3cc(C(F)(F)F)cc(N4CCN(C5COC5)CC4)n3)n2)c1` [Compound 545, N-[1-(3-fluorophenyl)-1,2,4-triazol-3-yl]-6-[4-(oxetan-3-yl)piperazin-1-yl]-4-(trifluoromethyl)pyridin-2-amine] showed a fold induction at 1 µM [3] of 10 to 100 and a fold induction at 10 µM [4] of 10 to 100.
Compound `CCc1cc(Nc2ncn(-c3ccc(C)c(Cl)c3)n2)cc(N2CCN(C3COC3)CC2)c1` [Compound 715, 1-(3-chloro-4-methyl-phenyl)-N-[3-ethyl-5-[4-(oxetan-3-yl)piperazin-1-yl]phenyl]-1,2,4-triazol-3-amine] has a fold induction at 1 µM [3] of 10 to 100 and a fold induction at 10 µM [4] of 1 to 10.
`Cc1cc(Nc2ncn(-c3cc(F)cc(F)c3)n2)cc(N2CCC3(COC3)C2)c1` [Compound 444, 1-(3,5-difluorophenyl)-N-[3-methyl-5-(2-oxa-7-azaspiro[3.4]octan-7-yl)phenyl]-1,2,4-triazol-3-amine] was tested, and the fold induction at 1 µM [3] was ≤ 1 and the fold induction at 10 µM [4] was 1 to 10.
Compound `CC(C)c1cc(Nc2ncn(-c3cnccn3)n2)cc(N2CCN(C3COC3)CC2)c1` [Compound 536, N-[3-isopropyl-5-[4-(oxetan-3-yl)piperazin-1-yl]phenyl]-1-pyrazin-2-yl-1,2,4-triazol-3-amine] has a fold induction at 1 µM [3] of 100 to 1000 and a fold induction at 10 µM [4] of 100 to 1000.
With `Cc1cc(Nc2ncn(-c3cc(F)cc(F)c3)n2)cc(C2CCNCC2)c1` [Compound 108, 1-(3,5-difluorophenyl)-N-[3-methyl-5-(4-piperidyl)phenyl]-1,2,4-triazol-3-amine] the fold induction at 1 µM [5] was 10 to 100 and the fold induction at 10 µM [6] was ≤ 1.
Work on `Cc1cc(Nc2ncn(-c3cc(F)cc(F)n3)n2)cc(N2CCN(C3COC3)CC2)c1` [Compound 329, 1-(4,6-difluoro-2-pyridyl)-N-[3-methyl-5-[4-(oxetan-3-yl)piperazin-1-yl]phenyl]-1,2,4-triazol-3-amine] yielded a fold induction at 1 µM [5] of 1 to 10 and a fold induction at 10 µM [6] of 10 to 100.
In the case of `Cc1cc(Nc2ncn(-c3ccc(Cl)c(F)c3)n2)nc(N2CCN(C3COC3)CC2)c1` [Compound 749, N-[1-(4-chloro-3-fluoro-phenyl)-1,2,4-triazol-3-yl]-4-methyl-6-[4-(oxetan-3-yl)piperazin-1-yl]pyridin-2-amine], the fold induction at 1 µM [3] is reported as 10 to 100 and the fold induction at 10 µM [4] is reported as 10 to 100.
`Cc1cc(Nc2ncn(-c3cccc(C#N)c3)n2)cc(N2CCN(C)CC2)c1` [Compound 499, 3-[3-[3-methyl-5-(4-methylpiperazin-1-yl)anilino]-1,2,4-triazol-1-yl]benzonitrile] showed a fold induction at 1 µM [3] of 100 to 1000 and a fold induction at 10 µM [4] of 10 to 100.
For `CCc1cc(Nc2ncn(-c3cc(C)ncn3)n2)cc(N2CCN(C3COC3)CC2)c1` [Compound 58, N-[3-ethyl-5-[4-(oxetan-3-yl)piperazin-1-yl]phenyl]-1-(6-methylpyrimidin-4-yl)-1,2,4-triazol-3-amine], the fold induction at 1 µM [5] was 100 to 1000 and the fold induction at 10 µM [6] was 100 to 1000.
For `Cc1cc(Nc2ncn(-c3cc(F)cc(F)c3)n2)cc(OCc2ccn(C)n2)c1` [Compound 605, 1-(3,5-difluorophenyl)-N-[3-methyl-5-[(1-methylpyrazol-3-yl)methoxy]phenyl]-1,2,4-triazol-3-amine], the fold induction at 1 µM [3] was 10 to 100 and the fold induction at 10 µM [4] was 10 to 100.
`Cc1cc(Nc2ncn(-c3cc(F)cc(F)c3)n2)cc(N2CCN(C3CSC3)CC2)c1` [Compound 95, 1-(3,5-difluorophenyl)-N-[3-methyl-5-[4-(thietan-3-yl)piperazin-1-yl]phenyl]-1,2,4-triazol-3-amine] was tested, and the fold induction at 1 µM [5] was 10 to 100 and the fold induction at 10 µM [6] was ≤ 1.
`N#Cc1cc(Nc2ncn(-c3ccc(F)c(F)c3)n2)cc(N2CCN(C3COC3)CC2)c1` [Compound 656, 3-[[1-(3,4-difluorophenyl)-1,2,4-triazol-3-yl]amino]-5-[4-(oxetan-3-yl)piperazin-1-yl]benzonitrile] was tested, and the fold induction at 1 µM [3] was 1 to 10 and the fold induction at 10 µM [4] was ≤ 1.
`Cc1cc(Nc2ncn(-c3cc(F)cc(F)c3)n2)nc(C2=CCOCC2)c1` [Compound 774, N-[1-(3,5-difluorophenyl)-1,2,4-triazol-3-yl]-6-(3,6-dihydro-2H-pyran-4-yl)-4-methyl-pyridin-2-amine] showed a fold induction at 1 µM [3] of 1 to 10 and a fold induction at 10 µM [4] of 10 to 100.
`Cc1cc(NCC2CCN(C3CCOCC3)CC2)cc(Nc2ncn(-c3cc(F)cc(F)c3)n2)c1` [Compound 1046, N1-[1-(3,5-difluorophenyl)-1,2,4-triazol-3-yl]-5-methyl-N3-[(1-tetrahydropyran-4-yl-4-piperidyl)methyl]benzene-1,3-diamine] was tested, and the fold induction at 1 µM [1] was 1 to 10 and the fold induction at 10 µM [2] was ≤ 1.
Compound `CC(F)(F)c1cc(Nc2ncn(-c3cc(F)cc(F)c3)n2)nc(N2CCN(C3COC3)CC2)c1` [Compound 685, 4-(1,1-difluoroethyl)-N-[1-(3,5-difluorophenyl)-1,2,4-triazol-3-yl]-6-[4-(oxetan-3-yl)piperazin-1-yl]pyridin-2-amine] has a fold induction at 1 µM [3] of 10 to 100 and a fold induction at 10 µM [4] of 1 to 10.
`CN1CCN(c2cc(Nc3ncn(-c4ccc(F)c(F)c4)n3)cc(C(F)(F)F)c2)CC1` [Compound 412, 1-(3,4-difluorophenyl)-N-[3-(4-methylpiperazin-1-yl)-5-(trifluoromethyl)phenyl]-1,2,4-triazol-3-amine] was tested, and the fold induction at 1 µM [3] was 1000 to 10000 and the fold induction at 10 µM [4] was ≤ 1.
Compound `COc1ccc(-n2cnc(Nc3cc(Cl)nc(N4CCOCC4)c3)n2)cc1OC` [Compound 345, 2-chloro-N-[1-(3,4-dimethoxyphenyl)-1,2,4-triazol-3-yl]-6-morpholino-pyridin-4-amine] has a fold induction at 1 µM [5] of 10 to 100 and a fold induction at 10 µM [6] of 1 to 10.
For `Cc1cc(Nc2ncn(-c3cc(F)cc(F)c3)n2)cc(N2CC(N3CC4CC(C3)O4)C2)c1` [Compound 742, 1-(3,5-difluorophenyl)-N-[3-methyl-5-[3-(6-oxa-3-azabicyclo[3.1.1]heptan-3-yl)azetidin-1-yl]phenyl]-1,2,4-triazol-3-amine], the fold induction at 1 µM [3] was 10 to 100 and the fold induction at 10 µM [4] was ≤ 1.
For `Cc1cc(Nc2ncn(-c3cccc(F)c3)n2)c(F)c(OC2CCOC2)c1` (single isomer, unassigned) [Compound 1061, N-(2-fluoro-5-methyl-3-tetrahydrofuran-3-yloxy-phenyl)-1-(3-fluorophenyl)-1,2,4-triazol-3-amine], the “Fold myelin pixels above background relative to baseline of no added compound” value (10.0 μM compound) was “++ (>10 to 100x)” and the fold induction at 1 µM [1] was 10 to 100.
In the case of `Cc1c(Nc2ncn(-c3cc(F)cc(F)c3)n2)cc(N2CCN(C3COC3)CC2)cc1OC(C)C` [Compound 591, 1-(3,5-difluorophenyl)-N-[3-isopropoxy-2-methyl-5-[4-(oxetan-3-yl)piperazin-1-yl]phenyl]-1,2,4-triazol-3-amine], the fold induction at 1 µM [3] is reported as 10 to 100 and the fold induction at 10 µM [4] is reported as 10 to 100.
In the case of `Cc1cc(Nc2ncn(-c3ccc(F)c(F)c3)n2)cc(O[C@H]2CCCN(C3COC3)C2)c1` (single isomer, unassigned) [Compound 632], the fold induction at 1 µM [3] is reported as 10 to 100 and the fold induction at 10 µM [4] is reported as ≤ 1.
Work on `Cc1cc(Nc2ncn(-c3ccc(F)c(F)c3)n2)cc(OCCn2cccn2)c1` [Compound 698, 1-(3,4-difluorophenyl)-N-[3-methyl-5-(2-pyrazol-1-ylethoxy)phenyl]-1,2,4-triazol-3-amine] yielded a fold induction at 1 µM [3] of 10 to 100 and a fold induction at 10 µM [4] of 10 to 100.
`Cc1cc(Nc2ncn(-c3ccccc3)n2)cc(N2CCNC(C)C2)c1` (stereo not shown) [Compound 259, N-[3-methyl-5-(3-methylpiperazin-1-yl)phenyl]-1-phenyl-1,2,4-triazol-3-amine] was tested, and the fold induction at 1 µM [5] was 1000 to 10000 and the fold induction at 10 µM [6] was ≤ 1.
